# Assay results published in the supplement of paper PMC11061612.
# How the values were obtained:
# [1] = test system: NCI-H1435 (Non-Small Cell Lung Carcinoma); experiment: combination Emax (second highest fraction inhibited in the dose matrix, 72 h); higher = more inhibition; extreme values may be limits of the assay
# Outline: (§1)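 Bliss excess equals the observed combination effect minus the expected value EA + EB − EA·EB, where EA and EB are the effects of each agent alone. Combination Emax is the second-highest inhibition within the matrix. Inhibition was scaled from CellTiter-Glo 2.0 luminescence, with 0 set by vehicle wells and 1 by blank wells, after 72 hours of two-drug dosing of cells plated in 1536-well plates.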
# [2] = test system: A375 (Melanoma); experiment: as above
# Outline: as §1
# [3] = test system: MRK-nu-1 (Breast Carcinoma); experiment: as above
# Outline: as §1
# [4] = test system: OVKATE (Ovarian Carcinoma); experiment: as above
# Outline: as §1
# [5] = test system: NTERA-2-cl-D1 (Other Solid Carcinomas); experiment: as above
# Outline: as §1
# [6] = test system: NCI-H2023 (Non-Small Cell Lung Carcinoma); experiment: as above
# Outline: as §1
# [7] = test system: COR-L105 (Lung Adenocarcinoma); experiment: as above
# Outline: as §1
# [8] = test system: NCI-H2009 (Lung Adenocarcinoma); experiment: as above
# Outline: as §1
# [9] = test system: MG-63 (Osteosarcoma); experiment: as above
# Outline: as §1
# [10] = test system: SW1463 (Colorectal Carcinoma); experiment: as above
# Outline: as §1
# [11] = test system: NCI-H2452 (Mesothelioma); experiment: as above
# Outline: as §1
# [12] = test system: NCI-H835 (Other Solid Carcinomas); experiment: as above
# Outline: as §1
# [13] = test system: KNS-62 (Squamous Cell Lung Carcinoma); experiment: as above
# Outline: as §1
# [14] = test system: RPMI-8402 (T-Lymphoblastic Leukemia); experiment: as above
# Outline: as §1
# [15] = test system: SBC-3 (Small Cell Lung Carcinoma); experiment: as above
# Outline: as §1
# [16] = test system: NCI-H1648 (Lung Adenocarcinoma); experiment: as above
# Outline: as §1
# [17] = test system: L-363 (Plasma Cell Myeloma); experiment: as above
# Outline: as §1
# [18] = test system: C32 (Melanoma); experiment: as above
# Outline: as §1
# [19] = test system: BC-1 (B-Cell Non-Hodgkin's Lymphoma); experiment: as above
# Outline: as §1
# [20] = test system: MDA-MB-175-VII (Breast Carcinoma); experiment: as above
# Outline: as §1
# [21] = test system: CAL-85-1 (Breast Carcinoma); experiment: as above
# Outline: as §1
# [22] = test system: GCIY (Gastric Carcinoma); experiment: as above
# Outline: as §1
# [23] = test system: SK-MEL-24 (Melanoma); experiment: as above
# Outline: as §1
# [24] = test system: NCI-H1435 (Non-Small Cell Lung Carcinoma); experiment: Bliss excess, mean over the matrix (fraction); higher = more synergy
# Outline: as §1
# [25] = test system: A375 (Melanoma); experiment: as above
# Outline: as §1
# [26] = test system: MRK-nu-1 (Breast Carcinoma); experiment: as above
# Outline: as §1
# [27] = test system: OVKATE (Ovarian Carcinoma); experiment: as above
# Outline: as §1
# [28] = test system: NTERA-2-cl-D1 (Other Solid Carcinomas); experiment: as above
# Outline: as §1
# [29] = test system: NCI-H2023 (Non-Small Cell Lung Carcinoma); experiment: as above
# Outline: as §1
# [30] = test system: COR-L105 (Lung Adenocarcinoma); experiment: as above
# Outline: as §1
# [31] = test system: NCI-H2009 (Lung Adenocarcinoma); experiment: as above
# Outline: as §1
# [32] = test system: MG-63 (Osteosarcoma); experiment: as above
# Outline: as §1
# [33] = test system: SW1463 (Colorectal Carcinoma); experiment: as above
# Outline: as §1
# [34] = test system: NCI-H2452 (Mesothelioma); experiment: as above
# Outline: as §1
# [35] = test system: NCI-H835 (Other Solid Carcinomas); experiment: as above
# Outline: as §1
# [36] = test system: KNS-62 (Squamous Cell Lung Carcinoma); experiment: as above
# Outline: as §1
# [37] = test system: RPMI-8402 (T-Lymphoblastic Leukemia); experiment: as above
# Outline: as §1
# [38] = test system: SBC-3 (Small Cell Lung Carcinoma); experiment: as above
# Outline: as §1
# [39] = test system: NCI-H1648 (Lung Adenocarcinoma); experiment: as above
# Outline: as §1
# [40] = test system: L-363 (Plasma Cell Myeloma); experiment: as above
# Outline: as §1
# [41] = test system: C32 (Melanoma); experiment: as above
# Outline: as §1
# [42] = test system: BC-1 (B-Cell Non-Hodgkin's Lymphoma); experiment: as above
# Outline: as §1
# [43] = test system: MDA-MB-175-VII (Breast Carcinoma); experiment: as above
# Outline: as §1
# [44] = test system: CAL-85-1 (Breast Carcinoma); experiment: as above
# Outline: as §1
# [45] = test system: GCIY (Gastric Carcinoma); experiment: as above
# Outline: as §1
# [46] = test system: SK-MEL-24 (Melanoma); experiment: as above
# Outline: as §1
smiles,measurement,setting,value
"Cc1cc2ncnn2cc1Nc1ncc2c(n1)n(C1CCOCC1)c(=O)n2C [AZD7648] + COc1cc([C@@H]2c3cc4c(cc3[C@@H](O[C@@H]3O[C@@H]5CO[C@@H](C)O[C@H]5[C@H](O)[C@H]3O)[C@H]3COC(=O)[C@H]23)OCO4)cc(OC)c1O [Etoposide] (first compound max 10 µM, 7x7, partner max 10 µM)",combination Emax,[1],0.286
same,combination Emax,[2],0.901
same,combination Emax,[3],0.726
same,combination Emax,[4],0.266
same,combination Emax,[5],0.575
same,combination Emax,[6],0.621
same,combination Emax,[7],0.338
same,combination Emax,[8],0.824
same,combination Emax,[9],0.874
same,combination Emax,[10],0.371
same,combination Emax,[11],0.355
same,combination Emax,[12],0.692
same,combination Emax,[13],0.456
same,combination Emax,[14],1
same,combination Emax,[15],0.94
same,combination Emax,[16],0.424
same,combination Emax,[17],0.702
same,combination Emax,[18],0.526
same,combination Emax,[19],0.984
same,combination Emax,[20],0.399
same,combination Emax,[21],0.629
same,combination Emax,[22],0.759
same,combination Emax,[23],0.677
same,Bliss excess,[24],0.0043
same,Bliss excess,[25],0.119
same,Bliss excess,[26],0.0829
same,Bliss excess,[27],-0.0214
same,Bliss excess,[28],0.137
same,Bliss excess,[29],0.0401
same,Bliss excess,[30],0.0299
same,Bliss excess,[31],0.116
same,Bliss excess,[32],0.0878
same,Bliss excess,[33],-0.0081
same,Bliss excess,[34],0.0449
same,Bliss excess,[35],0.024
same,Bliss excess,[36],0.056
same,Bliss excess,[37],0.0847
same,Bliss excess,[38],0.119
same,Bliss excess,[39],-0.0577
same,Bliss excess,[40],0.0582
same,Bliss excess,[41],0.0402
same,Bliss excess,[42],0.0896
same,Bliss excess,[43],0.0478
same,Bliss excess,[44],0.0483
same,Bliss excess,[45],0.125
same,Bliss excess,[46],0.0438
